Data from patent US7105543B2, “4-, 5-, 6- and 7-indole derivatives useful for the treatment of CNS disorders” (H. Lundbeck A/S, priority 2000, dated 2006).
Where two headings read alike, the source gives them in different places.

Tests used:
[1] = biological target: T1, human cloned dopamine D4.2 receptors expressed in CHO-cells (Homo sapiens, UniProt P21917, DEL265-296); assay: Inhibition of binding of [3H]YM-09151-2 to D4.2 receptors
T1 construct: expressed in transfected cells; host or cells: CHO cells
T1 sequence (P21917 with tags, fused parts or gaps DEL265-296): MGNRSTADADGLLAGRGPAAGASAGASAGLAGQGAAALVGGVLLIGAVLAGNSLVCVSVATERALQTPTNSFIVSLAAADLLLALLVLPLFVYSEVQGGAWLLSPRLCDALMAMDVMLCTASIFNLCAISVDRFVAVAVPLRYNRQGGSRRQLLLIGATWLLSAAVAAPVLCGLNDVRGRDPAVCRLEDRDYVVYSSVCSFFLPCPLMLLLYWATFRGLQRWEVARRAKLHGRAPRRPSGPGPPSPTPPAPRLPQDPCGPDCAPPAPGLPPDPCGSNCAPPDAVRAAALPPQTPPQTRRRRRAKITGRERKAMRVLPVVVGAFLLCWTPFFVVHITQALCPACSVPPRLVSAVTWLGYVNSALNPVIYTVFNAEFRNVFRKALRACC
Method: Inhibition of Binding of [^3H]YM-09151-2 to D4.2 Receptors
By this method, the inhibition by drugs of the binding of [^3H]YM-09151-2 (0.06 nM) to membranes of human cloned dopamine D4.2 receptors expressed in CHO-cells is determined in vitro. The method is modified from NEN Life Science Products, Inc., technical data certificate PC2533-10/96.

dopamine D2 receptor = biological target: T2, dopamine D2 receptor (Rattus norvegicus, UniProt P61169); assay: Inhibition of the binding of [3H]Spiperone to D2 receptors
T2 construct: from tissue
T2 sequence (P61169 whole entry): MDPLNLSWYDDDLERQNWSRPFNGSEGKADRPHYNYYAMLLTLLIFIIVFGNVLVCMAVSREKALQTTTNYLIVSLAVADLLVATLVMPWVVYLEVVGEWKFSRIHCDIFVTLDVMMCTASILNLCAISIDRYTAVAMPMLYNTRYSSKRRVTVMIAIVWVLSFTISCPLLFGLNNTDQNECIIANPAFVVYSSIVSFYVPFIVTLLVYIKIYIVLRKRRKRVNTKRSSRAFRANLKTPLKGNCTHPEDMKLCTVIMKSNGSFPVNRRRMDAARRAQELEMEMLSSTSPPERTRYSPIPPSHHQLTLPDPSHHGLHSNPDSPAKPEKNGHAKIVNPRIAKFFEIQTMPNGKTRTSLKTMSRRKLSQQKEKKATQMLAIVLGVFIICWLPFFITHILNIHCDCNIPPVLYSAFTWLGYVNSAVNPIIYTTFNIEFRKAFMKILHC
Method: Inhibition of the Binding of [^3H]Spiperone to D2 Receptors
The compounds were tested with respect to affinity for the dopamine D2 receptor by determining their ability to inhibit the binding of [^3H]Spiperone to D2 receptors by the method of Hyttel et al. J. Neurochem. 1985, 44, 1615.

D4 receptor = biological target: T3, D4 receptor (Homo sapiens, UniProt P21917); conditions: various in vitro efficacy assays, literature; cited from earlier work
T3 sequence (P21917 1-419): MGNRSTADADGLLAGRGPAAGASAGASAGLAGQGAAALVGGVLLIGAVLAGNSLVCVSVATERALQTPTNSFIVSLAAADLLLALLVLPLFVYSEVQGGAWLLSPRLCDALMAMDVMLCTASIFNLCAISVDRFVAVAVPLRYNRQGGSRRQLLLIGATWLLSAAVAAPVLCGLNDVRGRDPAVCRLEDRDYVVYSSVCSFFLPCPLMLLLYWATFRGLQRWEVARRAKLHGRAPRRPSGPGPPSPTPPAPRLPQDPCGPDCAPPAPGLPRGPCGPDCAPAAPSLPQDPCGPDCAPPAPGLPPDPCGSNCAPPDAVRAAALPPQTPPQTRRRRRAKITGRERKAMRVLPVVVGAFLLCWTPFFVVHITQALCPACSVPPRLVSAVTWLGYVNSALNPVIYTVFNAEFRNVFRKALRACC

[2] = inhibition of [3H]Spiperone binding, read-out: D2-Receptor IC50

Clc1ccc(N2CCN(Cc3ccc4[nH]ccc4c3)CC2)cc1 [Compound 1a, 5-[[4-(4-chlorophenyl)piperazin-1-yl]methyl]-1H-indole]
IC50 [1]: 7.5 nM | IC50 (dopamine D2 receptor): 1700 nM

COc1ccc(N2CCN(Cc3ccc4[nH]ccc4c3)CC2)cc1 [Compound 1c, 5-[[4-(4-methoxyphenyl)piperazin-1-yl]methyl]-1H-indole]
IC50 [1]: 25 nM | IC50 (dopamine D2 receptor): > 10000 nM

Clc1ccc(N2CCN(Cc3ccc4cc[nH]c4c3)CC2)cc1 [Compound 1f, 6-[[4-(4-chlorophenyl)piperazin-1-yl]methyl]-1H-indole]
IC50 (dopamine D2 receptor): > 10000 nM

CC(C)Oc1cccnc1N(C)C1CCN(Cc2ccccc2)CC1 [Compound U-101958]
Functional activity at the D4 receptor (in words) (D4 receptor): partial D4 receptor agonists

c1ccc(N2CCN(Cc3ccc4[nH]ccc4c3)CC2)cc1 [Compound 1d, 5-[[4-phenylpiperazin-1-yl]methyl]-1H-indole]
IC50 [1]: 31 nM | IC50 (dopamine D2 receptor; [2]): 940 nM

COc1ccc(N2CCN(Cc3ccc4cc[nH]c4c3)CC2)cc1 [Compound 1g, 6-[[4-(4-methoxyphenyl)piperazin-1-yl]methyl]-1H-indole]
IC50 [1]: 9.1 nM | IC50 (dopamine D2 receptor): > 10000 nM

Clc1ccc(C2=CCN(Cc3ccc4[nH]ccc4c3)CC2)cc1 [Compound 1e, 5-[4-(4-Chlorophenyl)-3,6-dihydro-2H-pyridin-1-ylmethyl]-1H-indole]
IC50 [1]: 1.4 nM | IC50 (dopamine D2 receptor; [2]): 190 nM

c1cc2cc(CN3CCN(c4ccc5[nH]ccc5c4)CC3)ccc2[nH]1 [Compound 1b, 5-[[4-(5-indolyl)piperazin-1-yl]methyl]-1H-indole]
IC50 [1]: < 50 nM | D4-receptor, second figure after the slash in the IC50 cell ([1]; printed as '<50/89', meaning of the second figure not explained): 89 nM | IC50 (dopamine D2 receptor; [2]): 1000 nM
